{"source": "patent US10774053B2", "about": "“HIV protease inhibitors” (Gilead Sciences, Inc., priority 2017, dated 2020)"}
{"system": "HIV-1 (IIIB) in MT-4 cells", "assay": "microbe, parasite or virus in culture", "format": "cell-based", "settings": "Human immunodeficiency virus 1, IIIB, MT4, MT-4 cells, HIV-1; read-out: MT4 EC50", "protocol": "(§1) Compounds were serially diluted (1:3) in DMSO on 384-well polypropylene plates and further diluted 200-fold into complete RPMI media (10% FBS, 1% P/S) using the Biotek Micro Flow and Agilent ECHO acoustic dispenser. Each plate contained up to 8 test compounds, with negative (No Drug Control) and 5 uM AZT positive controls. MT-4 cells were pre-infected with 10 uL of either RPMI (mock-infected) or a fresh 1:250 dilution of an HIV-1 (IIIB) concentrated virus stock. Infected and uninfected MT-4 cells were further diluted in complete RPMI media and added to each plate using a Micro Flow dispenser. After 5 days incubation in a humidified and temperature controlled incubator (37° C.), Cell Titer Glo (Promega) was added to the assay plates to quantify the amount of luciferase.", "units": {"EC50": "nM"}}
{"smiles": "CC(C)(C)C[C@]1(c2ccc(-c3cnn(C(F)F)c3)cc2)NC(=N)N([C@H](COC(=O)N2CC(C)(C#N)C2)c2ccc(Cl)c(-c3ncn[nH]3)c2)C1=O", "note": "[Compound 85]", "EC50": 112}
{"smiles": "CC(C)(C)C[C@]1(c2ccc(-c3cnn(C(F)F)c3)cc2)NC(=N)N([C@H](COC(=O)N[C@@H]2C[C@@H]2F)c2ccc(Cl)c(-n3ncnc3C(F)F)c2)C1=O", "note": "[Compound 287]", "EC50": 7.55}
{"smiles": "CC(C)(C)C[C@]1(c2ccc(-c3cnn(S(=O)(=O)C4CC4)c3)c(F)c2)NC(=N)N([C@H](COC(=O)NCC(F)(F)F)c2ccc(Cl)c(-n3ncnc3C(F)F)c2)C1=O", "note": "[Compound 302]", "EC50": 18.1}
{"smiles": "CC(C)(C)C[C@]1(c2ccc(-c3ncccn3)cc2)NC(=N)N([C@H](CO)c2ccc(Cl)c(-n3cncn3)c2)C1=O", "note": "[Compound 245]", "EC50": 239}
{"smiles": "CC(C)(C)C[C@]1(c2ccc(-c3ncccn3)cc2)NC(=N)N([C@H](COC(=O)NC(C)(C)C(F)F)c2ccc(Cl)c(-c3ncnn3C(F)F)c2)C1=O", "note": "[Compound 125]", "EC50": 12}
{"smiles": "CC(C)(C)C[C@]1(c2ccc(-c3cnn(S(C)(=O)=O)c3)cc2)NC(=N)N([C@H](COC(=O)NC2(C(F)(F)F)CC2)c2ccc(Cl)c(-n3ncnc3C(F)F)c2)C1=O", "note": "[Compound 292]", "EC50": 14.2}
{"smiles": "COc1ccc([C@@]2(CC(C)(C)C)NC(=N)N([C@H](COC(=O)N(C)C)c3ccc(Cl)c(-c4ncccc4C)c3)C2=O)c(F)c1", "note": "[Compound 1]", "EC50": 64.6}
{"smiles": "CC(C)(C)C[C@]1(c2ccc(-c3cnn(C(F)F)c3)cc2)NC(=N)N([C@H](COC(=O)N2CC(C(F)(F)F)C2)c2ccc(Cl)c(-c3ncn[nH]3)c2)C1=O", "note": "[Compound 83]", "EC50": 33.4}
{"smiles": "CC(C)(C)C[C@]1(c2ccc(-c3ccsn3)cc2)NC(=N)N([C@H](COC(=O)NC2(C(F)(F)F)CC2)c2ccc(Cl)c(-n3ncnc3C(F)F)c2)C1=O", "note": "[Compound 276]", "EC50": 12.5}
{"smiles": "[H]/N=C1\\N[C@](CC(C)(C)C)(c2ccc(-c3cnn(C(F)F)c3)cc2)C(=O)N1[C@H](COC(=O)NC1CC1)c1ccc(Cl)c(-c2nccc(OC)n2)c1", "note": "[Compound 15, (S)-2-(4-chloro-3-(4-methoxypyrimidin-2-yl)phenyl)-2-((R)-4-(4-(1-(difluoromethyl)-1H-pyrazol-4-yl)phenyl)-2-imino-4-neopentyl-5-oxoimidazolidin-1-yl)ethyl cyclopropylcarbamate]", "EC50": 230}
{"smiles": "Cc1cc(-c2ccc([C@@]3(CC(C)(C)C)NC(=N)N([C@H](COC(=O)NC4(C(F)(F)F)CC4)c4ccc(Cl)c(-n5ncnc5C(F)F)c4)C3=O)cc2)on1", "note": "[Compound 216]", "EC50": 9.74}
{"smiles": "CC(C)(C)C[C@]1(c2ccc(-c3cnn(C(F)F)c3)cc2)NC(=N)N([C@H](COC(=O)NC(C)(C)C)c2ccc(Cl)c(-n3cncn3)c2)C1=O", "note": "[Compound 241]", "EC50": 8.36}
{"smiles": "CC(C)(C)C[C@]1(c2ccc(-c3cnn(C4CC4)n3)c(F)c2)NC(=N)N([C@H](COC(=O)NC2(C(F)(F)F)CC2)c2ccc(Cl)c(-n3ncnc3C(F)F)c2)C1=O", "note": "[Compound 225]", "EC50": 17.4}
{"smiles": "CC(C)(C)C[C@]1(c2ccc(-c3cnn(C(F)F)c3)cc2)NC(=N)N([C@H](COC(=O)NC2(C)CC2)c2ccc(Cl)c(-n3cc(C4CC4)cn3)c2)C1=O", "note": "[Compound 264]", "EC50": 228}
{"smiles": "CCC1(NC(=O)OC[C@H](c2ccc(Cl)c(-n3cccn3)c2)N2C(=N)N[C@](CC(C)(C)C)(c3ccc(-c4cnn(C(F)F)c4)cc3)C2=O)CC1", "note": "[Compound 259]", "EC50": 65.4}
{"smiles": "CC(C)(C)C[C@]1(c2ccc(-c3ccc(OC(F)F)cc3)cc2)NC(=N)N([C@H](COC(=O)NC2(C(F)(F)F)CC2)c2ccc(Cl)c(-n3ncnc3C(F)F)c2)C1=O", "note": "[Compound 282]", "EC50": 62}
{"smiles": "CC(C)(C)C[C@]1(c2ccc(-c3cnn(C(F)F)c3)cc2)NC(=N)N([C@H](COC(=O)NCC(F)F)c2ccc(Cl)c(-n3ncnc3C(F)F)c2)C1=O", "note": "[Compound 219]", "EC50": 8.8}
{"smiles": "CC(C)(C)C[C@]1(c2ccc(-c3cnn(C4CC4)n3)cc2F)NC(=N)N([C@H](COC(=O)NC2(C(F)(F)F)CC2)c2ccc(Cl)c(-c3ncnn3C(F)F)c2)C1=O", "note": "[Compound 143]", "EC50": 9.59}
{"smiles": "CC(C)(C)C[C@]1(c2ccc(-c3cnn(C(F)F)c3)cc2)NC(=N)N([C@H](COC(=O)NC2(C(F)(F)F)CC2)c2ccc(Cl)c(-n3cccn3)c2)C1=O", "note": "[Compound 255]", "EC50": 22.7}
{"smiles": "CC(C)(F)C[C@]1(c2ccc(-c3cnn(C(F)F)c3)cc2)NC(=N)N([C@H](COC(=O)N2CC(F)(F)C2)c2ccc(Cl)c(-c3ncn[nH]3)c2)C1=O", "note": "[Compound 101]", "EC50": 65.9}
{"smiles": "[H]/N=C1\\N[C@](CC(C)(C)C)(c2ccc(-c3cnn(C(F)F)c3)cc2)C(=O)N1[C@H](COC(N)=O)c1ccc(Cl)c(-c2c[nH]cn2)c1", "note": "[Compound 29]", "EC50": 228}
{"smiles": "CC(C)(C)C[C@]1(c2ccc(-c3cnn(C(F)F)c3)cc2)NC(=N)N([C@H](COC(=O)N2CC(C)(C)C2)c2ccc(Cl)c(-c3ncn[nH]3)c2)C1=O", "note": "[Compound 75]", "EC50": 30.5}
{"smiles": "CC(C)n1ncc(-c2ccc([C@@]3(CC(C)(C)C)NC(=N)N([C@H](COC(=O)NC4(C(F)(F)F)CC4)c4ccc(Cl)c(-n5ncnc5C(F)F)c4)C3=O)cc2)n1", "note": "[Compound 371]", "EC50": 26.7}
{"smiles": "Cn1nnc(-c2ccc([C@@]3(CC(C)(C)C)NC(=N)N([C@H](COC(=O)NC4(C(F)(F)F)CC4)c4ccc(Cl)c(-n5ncnc5C(F)F)c4)C3=O)cc2)n1", "note": "[Compound 357]", "EC50": 10.6}
{"smiles": "CC(C)(C)C[C@]1(c2ccc(-c3ccccn3)cc2)NC(=N)N([C@H](COC(=O)NC2(C(F)(F)F)CC2)c2ccc(Cl)c(-n3cncn3)c2)C1=O", "note": "[Compound 320]", "EC50": 22.5}
{"smiles": "CC(C)(C)C[C@]1(c2ccc(-c3cnn(C(F)F)c3)cc2)NC(=N)N([C@H](COC(=O)N(CC(F)F)C2CC2)c2ccc(Cl)c(-n3cncn3)c2)C1=O", "note": "[Compound 376]", "EC50": 12}
{"smiles": "CC(C)(C)C[C@]1(c2ccc(-c3cnn(C(F)F)c3)cc2)NC(=N)N([C@H](COC(=O)Nc2ccccn2)c2ccc(Cl)c(-c3ncn[nH]3)c2)C1=O", "note": "[Compound 108]", "EC50": 85.8}
{"smiles": "[H]/N=C1\\N[C@](CC(C)(C)C)(c2ccc(-c3cnn(C(F)F)c3)cc2)C(=O)N1[C@H](COC(=O)NC1CC1)c1ccc(Cl)c(-c2ncc[nH]2)c1", "note": "[Compound 16]", "EC50": 11.4}
{"smiles": "COc1ccc([C@@]2(CC(C)(C)C)NC(=N)N([C@H](COC(=O)NC3(C(F)(F)F)CC3)c3ccc(Cl)c(-n4ncnc4C(F)F)c3)C2=O)c(F)c1F", "note": "[Compound 228]", "EC50": 14.3}
{"smiles": "CC(C)(C)C[C@]1(c2ccc(-c3cnn(C(F)F)c3)cc2F)NC(=N)N([C@H](COC(=O)N2CC(F)(F)C2)c2ccc(Cl)c(-c3ncn[nH]3)c2)C1=O", "note": "[Compound 111]", "EC50": 40.4}
{"smiles": "CC(C)(C)C[C@]1(c2ccc(-c3cnn(C(F)F)c3)cc2)NC(=N)N([C@H](COC(=O)NC2(C)CC2)c2ccc(Cl)c(-n3cccn3)c2)C1=O", "note": "[Compound 258]", "EC50": 28.5}
{"smiles": "CC1(NC(=O)OC[C@H](c2ccc(Cl)c(-c3ncnn3C(F)F)c2)N2C(=N)N[C@](CC(C)(C)C(F)(F)F)(c3ccc(-c4cnn(C5CC5)n4)cc3)C2=O)CC1", "note": "[Compound 157]", "EC50": 7.64}
{"smiles": "CC(C)(C)C[C@]1(c2ccc(-c3cnn(C(F)F)c3)cc2)NC(=N)N([C@H](COC(=O)NC2(C(F)(F)F)CC2)c2ccc(Cl)c(-n3nccn3)c2)C1=O", "note": "[Compound 268]", "EC50": 37.8}
{"smiles": "C[C@H](NC(=O)OC[C@H](c1ccc(Cl)c(-c2ncnn2C(F)F)c1)N1C(=N)N[C@](CC(C)(C)C)(c2ccc(-c3cnn(C4CC4)n3)cc2)C1=O)C(F)(F)F", "note": "[Compound 147]", "EC50": 7.93}
{"smiles": "C[C@H](NC(=O)OC[C@H](c1ccc(Cl)c(-n2ncnc2C(F)F)c1)N1C(=N)N[C@](CC(C)(C)C)(c2ccc(-c3cnn(C4CC4)c3)cc2)C1=O)C(F)(F)F", "note": "[Compound 234]", "EC50": 9.28}
{"smiles": "C[C@@H](C(=O)NC[C@H](c1ccc(Cl)c(-n2ncnc2C(F)F)c1)N1C(=N)N[C@](CC(C)(C)C(F)(F)F)(c2ccc(-c3cnn(C4CC4)n3)cc2)C1=O)C(F)(F)F", "note": "[Compound 390]", "EC50": 20.9}
{"smiles": "C[C@H](NC(=O)OC[C@H](c1ccc(Cl)c(-n2ncnc2C(F)F)c1)N1C(=N)N[C@](CC(C)(C)C)(c2ccc(-c3cnn(C4CC4)c3)cc2F)C1=O)C(F)(F)F", "note": "[Compound 315]", "EC50": 9.97}
{"smiles": "CC(C)(C)C[C@]1(c2ccc(-c3cnn(C(F)F)c3)cc2)NC(=N)N([C@H](COC(=O)NC(C)(C)C(F)F)c2ccc(Cl)c(-c3ncn(C(F)F)n3)c2)C1=O", "note": "[Compound 69]", "EC50": 32.6}
{"smiles": "CC1(NC(=O)OC[C@H](c2ccc(Cl)c(-n3cccn3)c2)N2C(=N)N[C@](CC(C)(C)C(F)(F)F)(c3cc(F)cc(F)c3)C2=O)CC1", "note": "[Compound 262]", "EC50": 1800}
{"smiles": "CC(C)(C)C[C@]1(c2ccc(-c3cnn(C4CC4)n3)cc2)NC(=N)N([C@H](CNC(=O)CC(F)(F)F)c2ccc(Cl)c(-n3ncnc3C(F)F)c2)C1=O", "note": "[Compound 383]", "EC50": 9.7}
{"smiles": "[H]/N=C1\\N[C@](CC(C)(C)C)(c2ccc(-c3cnn(C(F)F)c3)cc2)C(=O)N1[C@H](COC(=O)NC1CC1)c1ccc(Cl)c(-c2nncs2)c1", "note": "[Compound 39]", "EC50": 29.8}
{"smiles": "CC(C)(C)C[C@]1(c2ccc(-c3cn(C4CC4)nn3)cc2)NC(=N)N([C@H](COC(=O)NC2(C(F)(F)F)CC2)c2ccc(Cl)c(-c3ncnn3C(F)F)c2)C1=O", "note": "[Compound 137]", "EC50": 19.5}
{"smiles": "CC(C)(C)C[C@]1(c2ccc(-c3cnccn3)cc2)NC(=N)N([C@H](COC(=O)NC2(C)CC2)c2ccc(Cl)c(-c3ncn[nH]3)c2)C1=O", "note": "[Compound 33]", "EC50": 37.2}
{"system": "HIV-1 (IIIB) in MT-4 cells", "assay": "microbe, parasite or virus in culture", "format": "cell-based", "settings": "Human immunodeficiency virus 1, IIIB, MT4, read-out: MT4 EC50 (nM)", "protocol": "as §1", "units": {"EC50": "nM"}}
{"smiles": "[H]/N=C1\\N[C@](CC(C)(C)C)(c2ccc(-c3cnn(C(F)F)c3)cc2F)C(=O)N1[C@H](COC(=O)NC1CC1)c1ccc(Cl)c(-c2ncccc2Cl)c1", "note": "[Compound 13]", "EC50": 310}
{"smiles": "CC(C)(C[C@]1(c2ccc(-c3cnn(C4CC4)n3)cc2)NC(=N)N([C@H](COC(=O)NCC(F)(F)F)c2ccc(Cl)c(-c3ncnn3C(F)F)c2)C1=O)C(F)(F)F", "note": "[Compound 156]", "EC50": 11.1}
